One data set is described as follows: Viscosity (27° C.). Format: physicochemical. The procedure:
(§1) Physical and chemical properties of the compound prepared in Example 1, which compound relates to the present invention, and an example of its application for cosmetic compositions will be described below.
(§2) Viscosity Water-solubility (25° )

Data set [1] is described as follows: Water-solubility (25° C.). Format: physicochemical. The note with it: for Water-solubility (25° C.) 10%: 10% content of the diglycerin dialkyl ether; for Water-solubility (25° C.) 50%: 50% content of the diglycerin dialkyl ether. As to the method: as §1, §2
* Content (%) of the diglycerin dialkyl ether according to this invention
These figures will have the same significance in subsequent examples.

On to “2-butoxy-3-isostearoxypropyl glyceryl ether [Example 4]”, for which, in the data set “Viscosity (27° C.)”, the “Viscosity (27° C.)” value worked out at 240 cp.

“2-octoxy-3-isostearoxypropyl glyceryl ether [Example 5]”: in “Viscosity (27° C.)”, the “Viscosity (27° C.)” value came out at 280 cp. In addition, in data set [1], the “Water-solubility (25° C.) 10%” value was “Undissolved” and the “Water-solubility (25° C.) 50%” value is recorded as “Undissolved”.

On to “2-methoxy-3-isostearoxypropyl glyceryl ether [Example 3]”, for which the “Viscosity (27° C.)” value in the data set “Viscosity (27° C.)” was 382 cp.

In the case of `CCCCCCCCOCC(COCC(O)CO)OC` (stereo not shown) [Example 1, 2-methoxy-3-octoxypropyl glyceryl ether], the “Viscosity (27° C.)” value in “Viscosity (27° C.)” came out at 423 cp. Moreover, in data set [1], the “Water-solubility (25° C.) 10%” value was “Dissolved” and the “Water-solubility (25° C.) 50%” value is recorded as “Dissolved”.

Regarding `CCCCCCCCCCCCOCC(COCC(O)CO)OC` (stereo not shown) [Example 2, 2-methoxy-3-dodecyloxypropyl glyceryl ether], in “Viscosity (27° C.)”, the “Viscosity (27° C.)” value was determined as 504 cp. In addition, in data set [1], the “Water-solubility (25° C.) 10%” value was “Dissolved”.

These data come from patent US4504464A, “2,3-Dialkoxypropyl glyceryl ether and its preparation process as well as cosmetic composition containing same” (Kao Soap Co., Ltd., priority 1981, dated 1985).
